Measured values taken from patent US10640507B2, “PBD antibacterial agents” (KING'S COLLEGE LONDON, priority 2015, dated 2020).
In brackets after ≈: the same amount, converted by molar mass. Where two headings read alike, the source gives them in different places.

Columns and labels:
P. aeruginosa PA01 = test: General MIC protocol, Gram negative; format: cell-based
Experimental: (§1) General Minimum Inhibitory Concentration (MIC) Protocol
(§2) 1. Grow up cultures of bacterial strains to be tested overnight.
(§3) 2. Dilute down overnight cultures to concentration of 1×10^6 bacteria/ml (OD0.01) in Tryptic soy broth (TSB).
(§4) 3. Add 100 μl of TSB media to column 2-column 12 in 96 well plate (keeping column 1 clear).
(§5) 4. Make up compound to a concentration of 64 μg/ml in water (or alternatively to twice the chosen maximum concentration to be tested).
(§6) 5. Add 100 μl of antibiotic solution to the 1st and 2nd columns.
(§7) 6. Using a multichannel pipette take 100 μl from the 2nd column wells and pipette into 3rd column wells and repeat down the 96 well plate (remembering to include controls i.e. uninfected media and media with no antibiotic).
(§8) 7. To each well (except uninfected control row H) add 100 μl of bacterially infected media at a concentration of 1×10^6/ml.
(§9) 8. This dilutes down the concentration of the antibiotic by half (top dose is therefore 32 μg/ml in column 1) and also gives you a starting bacterial concentration of 5×10^5/ml.
(§10) 9. Wrap plate with parafilm to prevent evaporation.
(§11) 10. Leave at desired temperature (37° C. unless specified elsewhere) for 20 hours.
(§12) 11. Next day check plates for growth and measure optical density (i.e. absorbance) at a wavelength of 600 nm (OD600).
(§13) An example of such a plate is shown in FIG. 1 where column A represents wells that receive the top dose 100 μl; column B represents wells that receive the top dose 100 μl+100 μl TSB; and column C represents wells that receive 100 μl TSB. Row H which is marked by a box labelled D represents a blank where the cells receive no bacteria.

K. pneumonia NCTC 13439 = test: General MIC protocol, Gram negative; format: cell-based; conditions: Klebsiella pneumoniae, NCTC13439
Experimental: as §1, §2, §3, §4, §5, §6, §7, §8, §9, §10, §11, §12, §13

K. pneumonia MGH 78578 = test: General MIC protocol, Gram negative; format: cell-based; conditions: Klebsiella pneumoniae, MGH78578
Experimental: as §1, §2, §3, §4, §5, §6, §7, §8, §9, §10, §11, §12, §13

NCTC 13368 = test: Effect of efflux pump inhibitors (EPIs) on MIC; format: cell-based, K. pneumoniae; conditions: for MIC: Klebsiella pneumoniae; for +PABN MIC: PABN at 25 μg/ml
Experimental: as §2, §3, §4
(§14) 4. Make up compound to a concentration of 64 μg/ml in water.
as §6
(§15) 6. Using a multichannel pipette take 100 μl from the 2nd column wells and pipette into 3rd column wells and repeat down the 96 well plate (remember to include controls i.e. uninfected media and media with no antibiotic).
(§16) 7. To each well (except uninfected control row H) add 50 μl/well of EPI at 4× final concentration in TSB.
(§17) 9. In wells used to test the effect of the EPI carbonyl cyanide 3-chlorophenylhydrazone (CCCP) the CCCP is added at 10 μg/ml final concentration.
(§18) 10. In wells used to test the effect of the EPI phenylalanine-arginine β-naphthylamide (PABN) the PABN is added at 25 μg/ml final concentration.
(§19) 11. In wells used to test the effect of the PABN+Mg, the PABN is added at 25 μg/ml final concentration, with 1 mM MgSO4 in TSB.
(§20) 12. Wrap plate with parafilm to prevent evaporation.
(§21) 13. Leave at desired temperature (37° C. unless specified elsewhere) for 20 hours.
(§22) 14. Next day check plates for growth and measure optical density (i.e. absorbance) at a wavelength of 600 nm (OD600).
(§23) Compound KMR-14-33 was tested against a range of bacterial species using the above protocol. Compound PP-A148 was also tested against a more limited range of bacterial species using the above protocol. For KMR-14-33 measurements were carried out for the compound alone, for the compound plus CCCP, for the compound plus PABN and for the compound plus PABN and plus Mg. For PP-A148 measurements were carried out for the compound alone and for the compound plus PABN.

M6 = test: Effect of efflux pump inhibitors (EPIs) on MIC; format: cell-based, K. pneumoniae; conditions: for MIC: Klebsiella pneumoniae; for +PABN MIC: PABN at 25 μg/ml
Experimental: as §2, §3, §4, §14, §6, §15, §16, §17, §18, §19, §20, §21, §22, §23

WI38 (Healthy cell line) = test: MTT cytotoxicity assay; format: cell-based; conditions: Homo sapiens, WI-38; MTT; 24 h continuous exposure; highest concentration tested 20 μM; read-out: IC50 WI38 (Healthy cell line)
Experimental: (§24) Two immortalised human cell lines, HeLa and WI38 were used for cytotoxicity screening of the compounds. HeLa is a human cervical cancer cell line and WI38 is a normal healthy cell line. The cell lines were obtained from the American Type Culture Collection. The cell-lines were maintained in monolayer culture in 75 cm2 flasks (TPP, Switzerland) under a humidified 5% CO2 atmosphere at 37° C. The HeLa cell line was maintained in Dulbecco's Modified Eagles Media (DMEM; Invitrogen) supplemented with foetal bovine serum (10% v/v; Invitrogen), L-glutamine (2 mM; Invitrogen), non-essential amino acids (1×; Invitrogen) and Penicillin-Streptomycin (1% v/v, Invitrogen). For WI38, Eagle's Minimum Essential Medium, and Penicillin-Streptomycin (1% v/v, Invitrogen) and foetal bovine serum (10%, nvitrogen) was used. For passaging, cells were washed with phosphate buffered saline [PBS] (GIBCO 14040, Invitrogen, UK), incubated with trypsine (GIBCO 25300, Invitrogen, UK), and re-seeded into fresh medium. For seeding, cells were counted using a Neubauer haemocytometer (Assistant, Germany) by microscopy (Nikon, USA) on a non-adherent suspension of cells that were washed in PBS, trypsinised, centrifuged at 8° C. at 8000 rpm for 5 min and re-suspended in fresh medium.
(§25) The cells were grown in normal cell culture conditions at 37° C. under a 5% CO2 humidified atmosphere using appropriate medium. The cell count was adjusted to 10^5 cells/ml/ and 20,000 cells were added per well. The cells were incubated for 24 hours and 1 μl of the appropriate inhibitor concentrations were to the wells in triplicates. After 24 h of continuous exposure to each compound, the cytotoxicity was determined using the MIT (3-(4,5-Dimethylthiazol-2-yl)-2,5-diphenyltetrazolium bromide) (Lancaster Synthesis Ltd, UK) colorimetric assay. Absorbance was quantified by spectrophotometry at λ=570 nm (Envision Plate Reader, PerkinElmer, USA). IC50 values were calculated by a dose-response analysis using the Prism Graphpad Prism® software. The cytotoxicity results are shown below in Table 12.

[1] = system: HeLa (Cervical cancer cell line); test: MTT cytotoxicity assay; format: cell-based; conditions: Homo sapiens, MTT, 24 h continuous exposure, read-out: IC50 HeLa (Cervical cancer cell line)
Experimental: as §24, §25

[2] = NCTC13368, read-out: Control with no EPI MIC
[3] = read-out: Control with no EPI MIC
[4] = Pseudomonas aeruginosa, PA01, PA01

| SMILES | MIC (P. aeruginosa PA01; Pseudomonas aeruginosa, PA01, read-out: MIC) [µg/mL] | MIC (K. pneumonia NCTC 13439; K. pneumonia NCTC 13439, read-out: MIC) [µg/mL] | MIC (K. pneumonia MGH 78578; K. pneumonia MGH 78578, read-out: MIC) [µg/mL] | MIC (NCTC 13368; [2]) [µg/mL] | +PABN MIC (NCTC 13368; NCTC 13368) [µg/mL] | MIC (M6; [3]) [µg/mL] | +PABN MIC (M6; M6) [µg/mL] | MIC (P. aeruginosa PA01; PA01) [µg/mL] | MIC (P. aeruginosa PA01; [4]) [µg/mL] | MIC (K. pneumonia NCTC 13439) [µg/mL] | MIC (K. pneumonia MGH 78578) [µg/mL] | IC50 (WI38 (Healthy cell line)) [µM] | IC50 [1] [µM] | MIC (NCTC 13368; NCTC13368, read-out: +CCCP MIC) [µg/mL] | +PABN + Mg MIC (NCTC 13368; NCTC 13368, PABN at 25 μg/ml with 1 mM MgSO4) [µg/mL] | MIC (M6; read-out: +CCCP MIC) [µg/mL] | +PABN + Mg MIC (M6; M6, PABN at 25 μg/ml with 1 mM MgSO4) [µg/mL] | MIC (P. aeruginosa PA01; PA01, KMR-14-33 alone) [µg/mL] |
| --- | --- | --- | --- | --- | --- | --- | --- | --- | --- | --- | --- | --- | --- | --- | --- | --- | --- | --- |
| O=C(O)c1cn(C2CC2)c2cc(N3CCNCC3)c(F)cc2c1=O [CIP, ciprofloxacin, reference compound] | 1 (≈ 3.02 µM) | 8 to 16 (≈ 24.1 to 48.3 µM) | 1 (≈ 3.02 µM) |  |  |  |  |  |  |  |  |  |  |  |  |  |  |  |
| COc1cc2c(cc1OCCCC(=O)Nc1cc(C(=O)Nc3ccc4oc(C(=O)N5CCSCC5)cc4c3)n(C)c1)N=C[C@@H]1CCCN1C2=O [PP-A148, (S)-4-(4-((7-methoxy-5-oxo-2,3,5,11a-tetrahydro-1H-benzo-[e]pyrrolo[1,2-a][1,4]diazepin-8-yl)oxy)butanamido)-1-methyl-N-(2-(thiomorpholine-4-carbonyl)benzofuran-5-yl)-1H-pyrrole-2-carboxamide] |  |  |  | 16 to 32 (≈ 22.9 to 45.8 µM) | 2 to 8 | 0.25 to 0.5 (≈ 0.358 to 0.716 µM) | 0.125 | >128 | 128 (≈ 183 µM) | 4 to 8 (≈ 5.72 to 11.4 µM) | 4 to 8 (≈ 5.72 to 11.4 µM) | > 20 | > 20 |  |  |  |  |  |
| COc1cc2c(cc1OCCCC(=O)Nc1cc(C(=O)Nc3ccc4sc(C(=O)N(C)C)cc4c3)n(C)c1)N=C[C@@H]1CCCN1C2=O [KMR-14-33, (S)—N-(2-(dimethylcarbamoyl)benzo[b]thiophen-5-yl)-4-(4-((7-methoxy-5-oxo-2,3,5,11a-tetrahydro-1H-benzo[e]pyrrolo[1,2-a][1,4]-diazepin-8-yl)oxy)butanamido)-1-methyl-1H-pyrrole-2-carboxamide] |  |  |  | 2 (≈ 3.05 µM) | 1 | 1 (≈ 1.52 µM) | 0.125 |  | > 32 | 2 (≈ 3.05 µM) | 1 (≈ 1.52 µM) | > 20 | 15.6 | 2 (≈ 3.05 µM) | 0.5 | 0.125 (≈ 0.19 µM) | 0.25 | > 32 |
